Measured values from patent publication US20110250454A1, “PREPARATION OF NEBIVOLOL” (priority 2010, published 2011).
Counter-ions that a name gives are not always drawn.

How the values were obtained:
[1] = Particle size distribution (laser diffraction, Malvern instrument); assay type: physicochemical; details: Hydrochloride; for particle size distribution D10: 10 volume percent of particles smaller than value; for particle size distribution D50: 50 volume percent of particles smaller than value; for particle size distribution D90: 90 volume percent of particles smaller than value
Description: The D10, D50, and D90 values are useful ways for indicating particle size distributions. D90 refers to at least 90 volume percent of the particles having a size smaller than the given value. Likewise, D10 refers to 10 volume percent of the particles having a size smaller than the given value. D50 refers to 50 volume percent of the particles having a size smaller than the given value. Methods for determining D10, D50, and D90 include laser diffraction, such as using equipment from Malvern Instruments Ltd. of Malvern, Worcestershire, United Kingdom.

[2] = Specific surface area (BET); assay type: physicochemical; details: BET stated for Example 8; Hydrochloride
[3] = natural crystalline form, not micronized; cited from earlier work
[4] = natural crystalline form, not micronized; cited from earlier work; remark: listed apart in the source

| SMILES | particle size distribution D10 [1] | particle size distribution D50 [1] | particle size distribution D90 [1] | Specific surface area [2] | bioavailability [3] | dissolution rate [4] |
| --- | --- | --- | --- | --- | --- | --- |
| OC(CNCC(O)C1CCc2cc(F)ccc2O1)C1CCc2cc(F)ccc2O1 (stereo not shown) [Example 8, Nebivolol Hydrochloride] | 3.94 μm | 19.1 μm | 48.4 μm | 1.2580 m^2/g | – | – |
| OC(CNCC(O)C1CCc2cc(F)ccc2O1)C1CCc2cc(F)ccc2O1 (stereo not shown) [Example 52, Nebivolol Hydrochloride] | 1.753 μm | 4.571 μm | 15.180 μm | – | – | – |
| OC(CNCC(O)C1CCc2cc(F)ccc2O1)C1CCc2cc(F)ccc2O1 (stereo not shown) [Example 53, Nebivolol Hydrochloride] | 1.87 μm | 4.46 μm | 11.72 μm | – | – | – |
| OC(CNCC(O)C1CCc2cc(F)ccc2O1)C1CCc2cc(F)ccc2O1 (stereo not shown) [Example 54, Nebivolol Hydrochloride] | 1.314 μm | 3.363 μm | 7.80 μm | – | – | – |
| OC(CNCC(O)C1CCc2cc(F)ccc2O1)C1CCc2cc(F)ccc2O1 (stereo not shown) [Example 55, Nebivolol Hydrochloride] | 2.37 μm | 6.29 μm | 25.76 μm | – | – | – |
| OC(CNCC(O)C1CCc2cc(F)ccc2O1)C1CCc2cc(F)ccc2O1 (stereo not shown) [Example 56, Nebivolol Hydrochloride] | 1.23 μm | 3.17 μm | 10.75 μm | 3.68 m^2/g | – | – |
| OC(CNCC(O)C1CCc2cc(F)ccc2O1)C1CCc2cc(F)ccc2O1 (stereo not shown) [Example 60, Nebivolol Hydrochloride] | 1.43 μm | 3.52 μm | 9.35 μm | – | – | – |
| OC(CNCC(O)C1CCc2cc(F)ccc2O1)C1CCc2cc(F)ccc2O1 (stereo not drawn) [nebivolol hydrochloride, (1RS,1′RS)-1,1′-[(2RS,2′SR)-bis(6-fluoro-3,4-dihydro-2H-1-benzopyran-2-yl)]-2,2′-iminodiethanol] | – | – | – | – | poor | poor |
